Experiment [1] concerns the target pepsin (activated recombinant human pepsinogen A) (Homo sapiens (Human), UniProt P0DJD9). The experiment can be described thus: Pepsin activity assay. The format is biochemical.
Description: 30 mM stocks of the experimental inhibitor compounds were prepared in DMSO. A 10 mM concentration of the inhibitor was prepared by diluting the 30 mM stock 3-fold in DMSO (30 μl of the [30 mM]:60 μl DMSO). 10-fold serial dilutions of 10 mM and 30 mM stocks were made on a dilution plate..
The pepstatin A inhibitor was received from Tocris Bioscience as 10 mg of lyophilized powder. DMSO was used to reconstitute the powder to a 10 mM concentration, which was aliquoted and stored at −20° C. A 40 μl volume of the 10 mM stock was thawed before use. 10-fold serial dilutions of 10 mM and 3 mM stocks were made in DMSO on a dilution plate.
Using a multichannel pipette, take a 2 μl volume of the diluted samples from the dilution plate into a new polypropylene 96-well plate. […]
After the enzyme addition, the substrate was added to each well in 50 μl volumes. […] The plate was immediately sealed and placed on a shaker set to 350 rpm for approximately 30 sec prior to reading in the Polar Star plate reader at room temperature with the excitation wavelength set at 320 nm, the emission wavelength set at 405 nm. Readings were taken every 41 seconds for approximately 25 minutes.
The selected BACE1 inhibitors in accordance with examples of the invention were then determined for Pepsin activity and target selectivity ratio (Pepsin IC50/BACE1 IC50).
Experiment [2] has as its system cellular production of amyloid β peptide (Aβ40) in 7PA2 CHO cells. The experiment can be described thus: Cell amyloid-beta production assay (MSD electrochemiluminescence immunoassay). The format is cell-based. The settings on record: 12 hours incubation, read-out: Cell Abeta40 IC50. From the text: Amyloid-β (Aβ) is a 33-42-amino acid post-proteolytic peptide generated as the result of the sequential cleavage of amyloid precursor protein (APP) by BACE1 and γ-secretase. Substantial evidence points to aggregation and deposition of certain isoforms of amyloid β peptide in the brain being causal to neurodegeneration and dementia typical of AD. There are two major isoforms of Aβ which are monitored as a biomarker to gain early read on Aβ aggregation: Aβ340 and Aβ342. Increased extracellular accumulation of amyloid β peptide results in the formation of amyloid β peptide oligomers, cerebral amyloid plaques, neurodegeneration, and ultimately brain atrophy, all of which play a pivotal role in AD neuropathological hallmarks.
The reagents for the cell amyloid beta production assay were prepared as follows.
7PA2 CHO cells (licensed from Dr. Dennis Selkoe's laboratory) were plated into 96-well plates at a density of 50,000 cells per […] complete medium (DMEM medium containing 10% fetal bovine serum, L-glutamine, penicillin/streptomycin and 200 μg/ml of G418). Cells were incubated for 16-18 hours in complete medium and the culture medium was aspirated and discarded. Fresh complete medium containing test articles or positive control, LY2886721, within drug concentration range from 0.01 to 100 nM or complete medium only (controls) was added for 12 hours, and the cell culture medium was assayed directly or following a dilution with complete cell culture medium and frozen at −80° C. until it could be assayed for Aβ38, Aβ40 and Aβ42 content using an MSD multiplex electrochemiluminescence immunoassay.
In the Meso Scale Discovery electrochemiluminescence immunoassay, on a block plate, add 150 μL of Diluent 35 to each well, seal the plate with an adhesive plate seal and incubate with shaking for 1 hour at room temperature. Wash and then add detection antibody solution and samples. Wash the plate 3 times with at least 150 μL/well of wash buffer. […] Add 150 μL of 2× Read Buffer T to each well. Read the plate on the MSD imager. No incubation in read buffer is required before reading the plate. […]

The target of experiment [3] is Human recombinant cathepsin D (Homo sapiens (Human), UniProt P07339). The experiment can be described thus: Cathepsin D activity assay. Format: biochemical. The following applies: read-out: CatD IC50.
Sequence of Human recombinant cathepsin D (P07339 65-412): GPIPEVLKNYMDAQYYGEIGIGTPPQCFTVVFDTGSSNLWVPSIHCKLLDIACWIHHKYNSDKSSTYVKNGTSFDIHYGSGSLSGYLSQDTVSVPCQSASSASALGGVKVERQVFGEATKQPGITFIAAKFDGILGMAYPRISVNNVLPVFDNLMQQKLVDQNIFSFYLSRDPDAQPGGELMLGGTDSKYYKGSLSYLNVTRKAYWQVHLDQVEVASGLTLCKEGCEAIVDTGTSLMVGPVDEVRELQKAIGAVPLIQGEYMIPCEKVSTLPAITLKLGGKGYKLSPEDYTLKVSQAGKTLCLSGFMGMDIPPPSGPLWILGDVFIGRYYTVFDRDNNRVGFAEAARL
Description: The development of a CatD activity assay is used to determine any potential cross reactivity for compounds selected from the β-secretase activity assay and to determine the selectivity to BACE1 inhibition. The CatD activity is reported for assessing target selectivity ratio (CatD IC50/BACE1 IC50).
The reagents for the cathepsin D assay were prepared as follows.
Human recombinant cathepsin D stored frozen in 2.0 μl aliquots was thawed and 42 μl of enzyme buffer (0.1M NaOAC, 0.2 M NaCl, pH 3.5) was added and incubated at 37° C. for 30 minutes. After 30 minutes the enzyme was further diluted to a final volume of 4.4 ml in enzyme buffer containing 5.0 mM DTT for immediate use in the cathepsin D assay.
The 7-methoxycoumarin-labeled peptide substrate (ES010) for cathepsin D was supplied as a 6.2 mM stock in DMSO. For use in the cathepsin D assay, the 6.2 mM stock was diluted to a 1.55 mM stock with DMSO. The 1.55 mM peptide stock in DMSO was further diluted 1:100 in reaction buffer (0.1M NaOAC, 0.2M NaCl, 0.1% Tween 20, 5.0 mM DTT, pH3.5) to create a 15.5 μM stock for use in the assay.
DMSO without compound served as a DMSO vehicle control for the cathepsin D assay. For each test compound, 30 μl of each dilution was pipetted into a separate well of a 96-well polypropylene plate. This polypropylene plate was labeled as the DMSO dilution plate and a plate map of test compound locations was made.
Test compounds from the DMSO dilution plate require a 1:100 dilution into reaction buffer before they can be added to the cathepsin D assay plate. To accomplish the 1:100 dilution of test compounds, 2.0 μl of each test compound at each concentration was pipetted from the DMSO dilution plate (using a multi-channel pipette calibrated to accurately dispense a 2.0 μl volume) into a new 96-well polypropylene plate using the plate map created for the DMSO dilution plate. This 96-well plate served as the inhibitor dilution plate. Next, 198 μl of reaction buffer was pipetted into each well of the inhibitor dilution plate (using a multi-channel pipette calibrated for accurate delivery of a 198 μl volume) and the pipetted test compound mixed by gentle up and down pipetting.
A1.0 mM stock of pepstatin A was made in DMSO and aliquotted into 5.0 μl samples for freezing and storage at −20° C. Upon thawing, 45 μl of DMSO (1:10 dilution) was added to create a 100 μM stock of pepstatin A in DMSO. The 100 μM Pepstatin A stock was further diluted 1:10 with DMSO to create a 10 μM stock in DMSO. […]
The assay plate was placed into a fluorescent plate reader with the excitation wavelength set at 320 nm and the emission wavelength set at 405 nm. Readings were collected every minute over a 30 minute collection period.

Like-named read-outs stand apart in the source and are kept apart here.

One may read the IC50 as the point on the concentration scale where inhibition reaches its midpoint.

Sequence of pepsin (activated recombinant human pepsinogen A) (P0DJD9 63-388): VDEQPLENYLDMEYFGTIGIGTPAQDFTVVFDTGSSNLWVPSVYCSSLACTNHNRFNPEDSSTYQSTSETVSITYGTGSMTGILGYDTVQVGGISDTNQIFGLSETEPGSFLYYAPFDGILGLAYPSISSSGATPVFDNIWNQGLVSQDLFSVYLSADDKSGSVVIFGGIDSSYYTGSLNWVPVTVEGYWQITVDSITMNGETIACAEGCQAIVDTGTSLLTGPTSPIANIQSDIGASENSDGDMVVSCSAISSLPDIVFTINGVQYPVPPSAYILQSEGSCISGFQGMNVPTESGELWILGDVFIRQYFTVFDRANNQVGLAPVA

In the case of `CC#Cc1ccc2sc3ccc([C@]4(C)CS(=O)(=O)C(C)(C)C(N)=N4)cc3c2c1` [Example 103, (R)-5-Amino-3,6,6-trimethyl-3-(8-(prop-1-yn-1-yl)dibenzo[b,d]thiophen-2-yl)-3,6-dihydro-2H-1,4-thiazine 1,1-dioxide], the IC50 in experiment [1] came to 3.14 µM; in experiment [2] (Cricetulus griseus, CHO, 12 h) it was 13 nM; in experiment [3], 17.2 µM.
With `CC#Cc1ccc2sc3cc(F)c([C@]4(C)CS(=O)(=O)C(C)(C)C(=N)N4)cc3c2c1` [Example 109, (R)-5-Amino-3-(3-fluoro-8-(prop-1-yn-1-yl)dibenzo[b,d]thiophen-2-yl)-3,6,6-trim ethyl-3,6-dihydro-2H-1,4-thiazine 1,1-dioxide], the IC50 was 4.38 µM in experiment [1]; 5 nM in experiment [2]; 5.5 ± 1.95 nM in experiment [2] (Cricetulus griseus, CHO, 12 h); 10.8 µM in experiment [3].

The values above are taken from patent publication US10870635B2, “Compounds and their use as BACE1 inhibitors” (ALLGENESIS BIOTHERAPEUTICS, INC., priority 2015, dated 2020).
